assay: Human microsomal stability assay; format: in vitro ADME; conditions: human liver microsomes 0.5 mg/mL, 37° C., pH 7.4, NADPH regenerating system, 0-30 minutes
Procedure: Human Microsomal Stability Assay
Human liver microsomes (Cat. NO.: 452117, Corning, USA) were preincubated with test compound for 10 minutes at 37° C. in 100 mM potassium phosphate buffer, pH 7.4. The reactions were initiated by adding NADPH regenerating system. The final incubation mixtures contained […] test compound, 0.5 mg/mL liver microsomal protein, 1 mM MgCl2, 1 mM NADP, 1 unit/mL isocitric dehydrogenase and 6 mM isocitric acid in 100 mM potassium phosphate buffer, pH 7.4. After incubation times of 0, 3, 6, 9, 15 and 30 minutes at 37° C., 300 μL of cold ACN (including internal standard) was added to 100 μL incubation mixture to terminate the reaction. Following precipitation and centrifugation, 100 μL supernatant will be taken out and added 300 uL water. The amount of compound remaining in the samples was determined by LC-MS/MS. Controls of no NADPH regenerating system at zero and 30 minutes were also prepared and analyzed. The results were categorized as: low (<7.0 mLJmin/kg), medium (7.0-16.2 mL/min/kg) and high (16.2-23.2 mLJmin/kg).

SMILES	CL (h) [mL/min/kg]
C[C@@H]1CN(c2ccc(C#N)c3ncccc23)C[C@@H]2c3ccc(N4C[C@@H](N)[C@H](F)C4)cc3CN12 [Example 48, 5-[(4R,10bS)-8-[(3R,4R)-3-amino-4-fluoro-pyrrolidin-1-yl]-4-methyl-3,4,6,10b-tetrahydro-1H-pyrazino[2,1-a]isoindol-2-yl]quinoline-8-carbonitrile]	8.9
C[C@@H]1CN(c2ccc(C#N)c3ncccc23)C[C@@H]2c3ccc(N4C[C@@H](F)[C@@H](N)C4)cc3CN12 [Example 46, 5-[(4R,10bS)-8-[(3S,4R)-3-amino-4-fluoro-pyrrolidin-1-yl]-4-methyl-3,4,6,10b-tetrahydro-1H-pyrazino[2,1-a]isoindol-2-yl]quinoline-8-carbonitrile]	8.8
C[C@@H]1CN(c2ccc(C#N)c3ncccc23)C[C@@H]2c3ccc(N4C[C@@H](N)[C@](C)(O)C4)cc3CN12 [Example 45, 5-[(4R,10bS)-4-methyl-8-[trans-(3R,4R)-4-amino-3-hydroxy-3-methyl-pyrrolidin-1-yl]-3,4,6,10b-tetrahydro-1H-pyrazino[2,1-a]isoindol-2-yl]quinoline-8-carbonitrile]	6.2
COC1CN(c2ccc3c(c2)CN2C3CN(c3ccc(C#N)c4ncccc34)C[C@H]2C)CC1N (single isomer, unassigned) [Example 16B]	8.1
C[C@@H]1CN(c2ccc(C#N)c3ncccc23)C[C@@H]2c3ccc(N4C[C@@H](N)[C@H](O)C4)cc3CN12 (single isomer, unassigned) [Example 40B]	7.6
C[C@@H]1CN(c2ccc(C#N)c3ncccc23)C[C@@H]2c3ccc(N4CCN[C@H](CO)C4)cc3CN12 [Example 12, 5-[(4R,10bS)-8-[(3S)-3-(hydroxymethyl)piperazin-1-yl]-4-methyl-3,4,6,10b-tetrahydro-1H-pyrazino[2,1-a]isoindol-2-yl]quinoline-8-carbonitrile]	6.2
C[C@@H]1CN(c2ccc(C#N)c3ncccc23)C[C@@H]2c3ccc(N4CC[C@@H](N)C4)cc3CN12 [Example 20, 5-[(4R,10bS)-8-[(3R)-3-aminopyrrolidin-1-yl]-4-methyl-3,4,6,10b-tetrahydro-1H-pyrazino[2,1-a]isoindol-2-yl]quinoline-8-carbonitrile]	6.5
[2H]c1ccc2c(N3C[C@@H](C)N4Cc5cc(N6CC7CNCC(C6)O7)ccc5[C@H]4C3)ccc(C#N)c2n1 [Example 93, 5-[(4R,10bS)-4-methyl-8-(9-oxa-3,7-diazabicyclo[3.3.1]nonan-3-yl)-3,4,6,10b-tetrahydro-1H-pyrazino[2,1-a]isoindol-2-yl]-2-deuterio-quinoline-8-carbonitrile]	8.4
C[C@@H]1CN(c2ccc(C#N)c3ncccc23)C[C@@H]2c3ccc(N4CCOC5CNCC54)cc3CN12 (stereo partly drawn) [Example 52, 5-[(4R,10bS)-8-(3,4a,5,6,7,7a-hexahydro-2H-pyrrolo[3,4-b][1,4]oxazin-4-yl)-4-methyl-3,4,6,10b-tetrahydro-1H-pyrazino[2,1-a]isoindol-2-yl]quinoline-8-carbonitrile]	8.1
C[C@@H]1CN(c2ccc(C#N)c3ncccc23)C[C@@H]2c3ccc(N4CC5(CNC5)C4)cc3CN12 [Example 36, 5-[(4R,10bS)-8-(2,6-diazaspiro[3.3]heptan-2-yl)-4-methyl-3,4,6,10b-tetrahydro-1H-pyrazino[2,1-a]isoindol-2-yl]quinoline-8-carbonitrile]	6.2
C[C@@H]1CN(c2ccc(C#N)c3ncccc23)C[C@@H]2c3ccc(N4C[C@H](N)[C@@](C)(O)C4)cc3CN12 [Example 45B, 5-[(4R,10bS)-8-[(3S,4S)-4-amino-3-hydroxy-3-methyl-pyrrolidin-1-yl]-4-methyl-3,4,6,10b-tetrahydro-1H-pyrazino[2,1-a]isoindol-2-yl]quinoline-8-carbonitrile]	6.2
C[C@@H]1CN(c2ccc(C#N)n3nccc23)C[C@@H]2c3ccc(N4CC[C@@H](N)C4)cc3CN12 [Example 96, 4-[(4R,10bS)-8-[(3R)-3-aminopyrrolidin-1-yl]-4-methyl-3,4,6,10b-tetrahydro-1H-pyrazino[2,1-a]isoindol-2-yl]pyrazolo[1,5-a]pyridine-7-carbonitrile]	6.2
C[C@@H]1CN(c2ccc(C#N)c3ncsc23)C[C@@H]2c3ccc(N4CCNCC4)cc3CN12 [Example 6, 7-[(4R,10bS)-4-methyl-8-piperazin-1-yl-3,4,6,10b-tetrahydro-1H-pyrazino[2,1-a]isoindol-2-yl]-1,3-benzothiazole-4-carbonitrile]	6.6
C[C@@H]1CN(c2ccc(C#N)c3ncccc23)C[C@@H]2c3ccc(N4CC5(CCN5)C4)cc3CN12 [Example 37, 5-[(4R,10bS)-8-(1,6-diazaspiro[3.3]heptan-6-yl)-4-methyl-3,4,6,10b-tetrahydro-1H-pyrazino[2,1-a]isoindol-2-yl]quinoline-8-carbonitrile]	6.5
C[C@@H]1CN(c2ccc(C#N)c3ncccc23)C[C@@H]2c3ccc(NC4CNC4)cc3CN12 [Example 28, 5-[(4R,10S)-8-(azetidin-3-ylamino)-4-methyl-3,4,6,10b-tetrahydro-1H-pyrazino[2,1-a]isoindol-2-yl]quinoline-8-carbonitrile]	8.7
C[C@@H]1CN(c2ccc(C#N)c3ncccc23)C[C@@H]2c3ccc(N4CCNC[C@H](O)C4)cc3CN12 [Example 53A, 5-[(4R,10bS)-8-[(6S)-6-hydroxy-1,4-diazepan-1-yl]-4-methyl-3,4,6,10b-tetrahydro-1H-pyrazino[2,1-a]isoindol-2-yl]quinoline-8-carbonitrile]	8.6
C[C@@H]1CN(c2ccc(C#N)c3ncccc23)C[C@@H]2c3ccc(N4CCOCC(N)C4)cc3CN12 (stereo partly drawn) [Example 54, 5-[(4R,10bS)-8-(6-amino-1,4-oxazepan-4-yl)-4-methyl-3,4,6,10b-tetrahydro-1H-pyrazino[2,1-a]isoindol-2-yl]quinoline-8-carbonitrile]	8.9
C[C@@H]1CN(c2ccc(C#N)c3ncccc23)C[C@@H]2c3ccc(N4CC5(CN(C)C5)C4)cc3CN12 [Example 38, 5-[(4R,10bS)-4-methyl-8-(6-methyl-2,6-diazaspiro[3.3]heptan-2-yl)-3,4,6,10b-tetrahydro-1H-pyrazino[2,1-a]isoindol-2-yl]quinoline-8-carbonitrile]	6.2
C[C@@H]1CN(c2ccc(C#N)c3ncccc23)C[C@@H]2c3ccc(N4CCC(N)(CO)C4)cc3CN12 (stereo partly drawn) [Example 19, 5-[(4R,10bS)-8-[3-amino-3-(hydroxymethyl)pyrrolidin-1-yl]-4-methyl-3,4,6,10b-tetrahydro-1H-pyrazino[2,1-a]isoindol-2-yl]quinoline-8-carbonitrile]	7.7
CO[C@@H]1CN(c2ccc3c(c2)CN2C3CN(c3ccc(C#N)c4ncccc34)C[C@H]2C)C[C@@H]1N (relative stereo) [Example 17, 5-[(4R,10bS)-8-[cis-3-amino-4-methoxy-pyrrolidin-1-yl]-4-methyl-3,4,6,10b-tetrahydro-1H-pyrazino[2,1-a]isoindol-2-yl]quinoline-8-carbonitrile]	6.2
